Data set [1] relates to CT26 colon carcinoma cells. Nature of the data set: CT26 tumor model, intratumoral metabolites plus α-PD-1. It is filed as in vivo, BALB/c mice. As to the method: FIG. 5: a) Therapeutic treatment regimen. BALB/c mice were s.c. inoculated with 1.5×10^5 CT26 colon carcinoma cells. The candidate metabolites were injected intratumorally every other day, 100 μg α-PD-1 was i.p. injected on days 9, 12, 16 and 20. b) Average tumor growth, c) individual tumor growth, and d) overall Kaplan-Meier survival are shown. Data represent the mean±s.e.m. (n=5).
(§1) Animals were cared for following the federal, state and local guidelines. All work conducted on animals was in accordance with and approved by the Institutional Animal Care and Use Committee (IACUC). Female (6-8 weeks old) BALB/c mice from Jackson Laboratory were inoculated with 1.5×10^5 CT26 cells per mouse on the right flank by s.c. injection. Tumor-bearing mice were randomly assigned to different treatment groups. For intratumoral injection study, the mice were injected with 3-methylhistidine (dose: 1 mg per mouse), sodium hippurate (dose: 1 mg per mouse), disodium sebacate (dose: 1 mg per mouse), sodium ferulate (dose: 1 mg per mouse), or DHB (dose: 0.5 mg per mouse) in 40 μL PBS buffer for every other day. The mice were i.p. injected with α-PD-1 antibody (100 μg per dose; clone RMP1-14, Bioxcell) on days 9, 12, 16 and 20 post tumor inoculation. For oral administration study, the mice were injected with 3-methylhistidine (dose: 3 mg per mouse), sodium hippurate (dose: 3 mg per mouse), disodium sebacate (dose: 3 mg per mouse), sodium ferulate (dose: 3 mg per mouse), or DHB (dose: 2.4 mg per mouse) in PBS buffer for 3 times every 4 days. α-PD-1 was injected on days 10, 14, 18 and 22. The tumor size was measured, and the tumor volume was calculated as ½×(length×width^2). Tumor-bearing mice were euthanized when the tumor size reached 1.5 cm in any diameter or when the animals became moribund with severe weight loss (>20%) or tumor ulceration.

For data set [2], the system named is CT26 colon carcinoma cells. Nature of the data set: CT26 tumor model, metabolite monotherapy i.p. without α-PD-1. It is filed as in vivo, BALB/c mice. As to conditions: monotherapy without α-PD-1 IgG; i.p. DHB 2.4 mg or 3-methylhistidine 3 mg per dose. The method, then: (§2) FIG. 7: a-d) In vitro cell viability of DHB at various concentrations in activated T cells, MC38, B16F10, and CT26 tumor cells. e) BALB/c mice were s.c. inoculated with 1.5×10^5 CT26 colon carcinoma cells. DHB (2.4 mg per dose) or 3-methylhistidine (3 mg per dose) was i.p. injected 3 times every 4 days, 100 μg α-PD-1 was i.p. injected on days 11, 15, and 20. Shown is the average tumor growth. Data represent the mean±s.e.m. (n=4-5).

The test system of data set [3] is activated T cells, MC38, B16F10, and CT26 tumor cells. Nature of the data set: In vitro cell viability of DHB at various concentrations. It is filed as cell-based. The conditions noted are these: concentration below 1 mM. The method, then: as §2
Data set [4] relates to OT-I CD8+ T cells. Nature of the data set: Tcf1+CD8+ differentiation of OT-I T cells with metabolites. It is filed as cell-based, mice. As to conditions: day 6. The method, then:
FIG. 3: a) OT-I CD8+ T cells were cultured with different metabolites in vitro as indicated, b,c) shown are the frequency of the Tcf1^+CD8+ T cells and the representative flow cytometry plots on day 6. Data represent the mean±s.e.m. (n=5).
(§3) Splenocytes from OT-I mice were obtained aseptically. The cells were cultured in 96-well plates (1×10^5 cells per well). For Tcm differentiation study, cells were activated with SIINFEKL peptide (4×10^−9M) in the presence of various metabolites (arginine: 3 mM; 3-methylhistidine: 3 mM; N-acetylneuraminate: 100 μM; disodium sebacate: 100 μM; DHB: 100 μM; pantothenate: 100 μM; γ-aminobutyric acid: 100 μM; glycerol: 100 μM; AICAR: 100 μM, sodium ferulate: 100 μM) for 3 days. Then cells were washed three times with T-cell medium and further cultured with IL-2 (10 ng ml^−1; PeproTech) in the presence of metabolites for 5 days. The cells were then washed twice and re-activated with SIINFEKL peptide (10 μM) for 2 h. The suspension cells were collected, blocked with CD16/32 antibody and stained with the fixable viability dye eFluor 450, FITC-CD44 rat anti-human/mouse and PE-CD62L monoclonal antibody. To test if the central memory CD8+ T cells differentiation is dependent on dendritic cells, CD8 T cells isolated from the spleen in OT-I mice were incubated in the 96-well plate, which was precoated with anti-hamster IgG antibody. […] (1 μg mL^−1) and IL-2 (100 U mL^−1) were added into each well in the presence of 3-methylhistidine (3 mM), DHB (100 μM), or sodium ferulate (100 μM) for 2 days. Then cells were washed for three times to remove α-CD3/α-CD28 antibodies and further incubated with metabolites and IL-2 (10 ng ml^−1) for 5 days. Thereafter, cells were collected for central memory CD8^+ T cells analysis. For CD8^+ T cells survival study, cells were activated with antigen peptide as above, following with thoroughly washing, and incubation in presence of IL-2 for 2 days. […] Tcf1^+CD8^+, CD44^+CD62L^+CD8^+ and survival (stained with Annexin V-APC and PI) T cells were detected via flow cytometry.

Data set [5] deals with CT26 colon carcinoma cells. As to the kind of experiment: CT26 tumor model, orally administered metabolites plus α-PD-1. It is filed as in vivo, BALB/c mice. The conditions noted are these: oral gavage 3 times every 4 days (DHB 2.4 mg, 3-methylhistidine 3 mg per mouse) plus α-PD-1 i.p. The method, then: FIG. 6: a) Therapeutic treatment regimen. BALB/c mice were s.c. inoculated with 1.5×10^5 CT26 colon carcinoma cells. The candidate agents were orally administrated 3 times every 4 days, 100 μg α-PD-1 was injected i.p. on days 10, 14, 18 and 22. b) Average tumor growth, c) individual tumor growth. Data represent the mean±s.e.m. (n=4-5).
as §1, with “For oral administration study, the mice were injected with 3-methylhistidine (dose: 3 mg per mouse), sodium hippurate (dose: 3 mg per mouse), disodium sebacate (dose: 3 mg per mouse), sodium ferulate (dose: 3 mg per mouse), or DHB (dose: 2.4 mg per mouse) in PBS buffer for 3 times every 4 days. α-PD-1 was injected on days 10, 14, 18 and 22.” left out, “Tumor-bearing mice were euthanized when the tumor size reached 1.5 cm in any diameter or when the animals became moribund with severe weight loss (>20%) or tumor ulceration.” left out

Data set [6] has as its system OT-I CD8+ T cells. Nature of the data set: Tcm differentiation of isolated OT-I CD8+ T cells activated with α-CD3/α-CD28 in the absence of dendritic cells. It is filed as cell-based, mice. The conditions noted are these: α-CD3/α-CD28 activation; 3-methylhistidine 3 mM, DHB 100 μM; day 7. As to the method: (§4) FIG. 2: a) OT-I CD8+ T cells were cultured with different metabolites in vitro as indicated, b,c) shown is the frequency of CD44^+CD62L^+ Tcm CD8+ T cells on day 8. d) OT-I CD8+ T cells were activated with α-CD3/α-CD28 antibodies in presence of metabolites as indicated and shown is the Tcm CD8+ T cells on day 7. Data represent the mean±s.e.m. (n=5).
Splenocytes from OT-I mice were obtained aseptically. The cells were cultured in 96-well plates (1×10^5 cells per well). For Tcm differentiation study, cells were activated with SIINFEKL peptide (4×10^−9M) in the presence of various metabolites (arginine: 3 mM; 3-methylhistidine: 3 mM; N-acetylneuraminate: 100 μM; disodium sebacate: 100 μM; DHB: 100 μM; pantothenate: 100 μM; γ-aminobutyric acid: 100 μM; glycerol: 100 μM; AICAR: 100 μM, sodium ferulate: 100 μM) for 3 days. Then cells were washed three times with T-cell medium and further cultured with IL-2 (10 ng ml^−1; PeproTech) in the presence of metabolites for 5 days. The cells were then washed twice and re-activated with SIINFEKL peptide (10 μM) for 2 h. The suspension cells were collected, blocked with CD16/32 antibody and stained with the fixable viability dye eFluor 450, FITC-CD44 rat anti-human/mouse and PE-CD62L monoclonal antibody. […] Tcf1^+CD8^+, CD44^+CD62L^+CD8^+ and survival (stained with Annexin V-APC and PI) T cells were detected via flow cytometry.

In data set [7] the test system is OT-I CD8+ T cells. As to the kind of experiment: CD8+ T cell survival upon IL-2 withdrawal (Annexin V/PI). It is filed as cell-based, mice. As to conditions: dependent on the dose of metabolites. As to the method:
FIG. 4: a) OT-I CD8+ T cells were cultured with different metabolites in vitro as indicated, b,c) shown are the level of survival CD8+ T cells (Annexin V^−PI^−) as well as the representative flow cytometry plots on day 5.5. Data represent the mean±s.e.m. (n=5).
as §3

Data set [8] has as its system OT-I CD8+ T cells. As to the kind of experiment: In vitro central memory (Tcm) differentiation of OT-I CD8+ T cells activated with SIINFEKL peptide and IL-2 with metabolites. It is filed as cell-based, mice. As to conditions: day 8; metabolite-supplemented medium (arginine 3 mM, 3-methylhistidine 3 mM, DHB 100 μM, sodium ferulate 100 μM). As to the method: as §4
Splenocytes from OT-I mice were obtained aseptically. The cells were cultured in 96-well plates (1×10^5 cells per well). For Tcm differentiation study, cells were activated with SIINFEKL peptide (4×10^−9M) in the presence of various metabolites (arginine: 3 mM; 3-methylhistidine: 3 mM; N-acetylneuraminate: 100 μM; disodium sebacate: 100 μM; DHB: 100 μM; pantothenate: 100 μM; γ-aminobutyric acid: 100 μM; glycerol: 100 μM; AICAR: 100 μM, sodium ferulate: 100 μM) for 3 days. Then cells were washed three times with T-cell medium and further cultured with IL-2 (10 ng ml^−1; PeproTech) in the presence of metabolites for 5 days. The cells were then washed twice and re-activated with SIINFEKL peptide (10 μM) for 2 h. The suspension cells were collected, blocked with CD16/32 antibody and stained with the fixable viability dye eFluor 450, FITC-CD44 rat anti-human/mouse and PE-CD62L monoclonal antibody. To test if the central memory CD8+ T cells differentiation is dependent on dendritic cells, CD8 T cells isolated from the spleen in OT-I mice were incubated in the 96-well plate, which was precoated with anti-hamster IgG antibody. […] (1 μg mL^−1) and IL-2 (100 U mL^−1) were added into each well in the presence of 3-methylhistidine (3 mM), DHB (100 μM), or sodium ferulate (100 μM) for 2 days. Then cells were washed for three times to remove α-CD3/α-CD28 antibodies and further incubated with metabolites and IL-2 (10 ng ml^−1) for 5 days. Thereafter, cells were collected for central memory CD8^+ T cells analysis. For CD8^+ T cells survival study, cells were activated with antigen peptide as above, following with thoroughly washing, and incubation in presence of IL-2 for 2 days. Metabolites were added during this incubation (arginine: 3 mM, 1 mM; 3-methylhistidine: 3 mM, 1 mM, 500 μM, 100 μM; N-acetylneuraminate: 100 μM; disodium sebacate: 100 μM; DHB: 100 μM, 50 μM, 20 μM; pantothenate: 100 μM; γ-aminobutyric acid: 100 μM; glycerol: 100 μM; AICAR: 100 μM). Then cells were further incubated in absence of both IL-2 and metabolites for 36 h to induce the apoptosis/dead. For Tcf1^+CD8^+ differentiation study, cells were activated with antigen peptide as above, followed by thoroughly washing, and incubation with metabolites in presence of IL-2 for 3 days. […] Tcf1^+CD8^+, CD44^+CD62L^+CD8^+ and survival (stained with Annexin V-APC and PI) T cells were detected via flow cytometry.

The subject of data set [9] is CT26 colon carcinoma cells. As to the kind of experiment: CT26 tumor model, oral prodrug #717 plus α-PD-1. The conditions noted are these: 2 mg per dose every other day starting day 8. It is filed as in vivo, BALB/c mice. As to the method: FIG. 10: BALB/c mice were s.c. inoculated with 1.5×10^5 CT26 colon carcinoma cells. The prodrug #717 (2 mg per dose) were orally administrated every other day starting day 8. 100 μg α-PD-1 was injected i.p. on days 11 and 16. Shown is the average tumor growth. Data represent the mean±s.e.m. (n=5).

Structures are written as SMILES.

With `O=C(O)c1ccc(O)c(O)c1` [DHB, 3,4-dihydroxybenzoate], the “systemic antitumor efficacy of α-PD-1 treatment and CT26 tumor growth” value in data set [1] (intratumoral every other day (DHB 0.5 mg, 3-methylhistidine 1 mg per mouse) plus α-PD-1 i.p.) was “improved the systemic antitumor efficacy of α-PD-1 treatment and slowed down the CT26 tumors growth”. Besides, the “tumor-free mice on day 70” value in [1] (intratumoral metabolite plus α-PD-1 i.p.) came to 80%. Also, the “tumor growth in vivo” value in data set [2] is “did not inhibit the tumor growth”. The cell toxicity result in [3] is on record as “low cell toxicity”. The “frequency of Tcf1+CD8+ T cells” value in the data set on OT-I CD8+ T cells [4] was “increased the frequency”. Further, in data set [5], the “efficacy of α-PD-1 treatment” value is given as “improved the efficacy of α-PD-1 treatment”. Besides, the “induction of central memory CD8+ T cells in the absence of dendritic cells” value in the data set on OT-I CD8+ T cells [6] was “can also induce central memory CD8^+ T cells”. Also, the “survival of activated CD8+ T cells” value in the data set with OT-I CD8+ T cells [7] is on record as “significantly increased the survival”. Also, the “differentiation of CD44+CD62L+ central memory CD8+ T cells” value in the data set with OT-I CD8+ T cells [8] is listed as “significantly increased the differentiation”.

As for `COC(=O)[C@H](Cc1cncn1C)NC(=O)OC(C)(C)C` [Prodrug #717, methyl Na-(tert-butoxycarbonyl)-Np-methyl-L-histidinate], the “synergy with α-PD-1 against tumor growth in vivo” value in [9] is “did not synergize”.

Source of the values: patent US20240299299A1, “COMPOSITIONS AND METHODS FOR INCREASING THE EFFICACY OF IMMUNOTHERAPIES AND VACCINES” (The Regents of the University of Michigan, priority 2021, published 2024).
